{"source": "patent US7863271B2", "about": "“2-aminobenzoxazole carboxamides as 5HT3 modulators” (Albany Molecular Research, Inc., priority 2006, dated 2011)", "note": "Counter-ions that a name gives are not always drawn."}
{"target": "T1, 5-HT3 (Homo sapiens, UniProt P46098)", "T1 sequence (P46098 24-478)": "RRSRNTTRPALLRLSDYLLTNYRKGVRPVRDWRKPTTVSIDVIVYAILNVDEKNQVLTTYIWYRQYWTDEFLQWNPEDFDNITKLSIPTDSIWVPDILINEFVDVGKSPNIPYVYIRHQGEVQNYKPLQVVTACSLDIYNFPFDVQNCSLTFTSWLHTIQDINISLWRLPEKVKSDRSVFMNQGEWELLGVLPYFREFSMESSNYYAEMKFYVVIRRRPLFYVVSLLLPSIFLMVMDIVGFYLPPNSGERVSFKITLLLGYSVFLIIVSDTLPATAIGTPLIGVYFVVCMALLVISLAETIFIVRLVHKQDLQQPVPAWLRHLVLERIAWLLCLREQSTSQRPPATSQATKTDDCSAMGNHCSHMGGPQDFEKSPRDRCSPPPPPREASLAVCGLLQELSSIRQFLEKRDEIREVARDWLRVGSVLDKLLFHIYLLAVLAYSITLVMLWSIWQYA", "experiment": "Compound affinity for the human 5-HT3 receptor (Assay B), SPA radioligand binding with [9-methyl-3H]BRL-43694", "parameters": "purchased Perkin Elmer", "conditions": "Assay B (method B unless otherwise annotated); read-out: 5-HT3 Ki", "experimental": "Compound Affinity for the human 5-HT3 Receptor (Assay B)\nThe relative affinity of the various compounds for the human 5-HT3 receptor was measured in a radioligand binding assay, using a scintillation proximity assay (SPA) format. Test compounds were dissolved to 10 mM in 100% DMSO, then serially diluted at 10× assay concentrations in 100% DMSO in 96-well polypropylene plates and further diluted to 4× assay concentrations with the assay buffer. […] Binding reactions were set up in wells of PicoPlates-96 (Perkin Elmer) by adding consecutively 50 μL of each competing compound or buffer, SPA beads, the radioligand and 5-HT3 receptor membranes. After 60-min incubation at room temperature on a Nutator mixer, plates were centrifuged for 15 min at 1,500 rpm, followed by incubation in the dark for 30 min. Radioactivity was counted in the TopCount microplate counter (Perkin Elmer) for 5 min. […] Specific binding was determined by subtracting nonspecific binding from total binding. All experiments were performed in duplicate using ten concentrations of a competing ligand, with ondansetron included as a control in every run. IC50 values were determined from specific binding data using XLfit4.1 curve fitting software from IDBS Ltd. Ki values were then calculated from the Cheng-Prusoff equation.", "units": {"Ki": "µM"}}
{"compound": "CN1[C@@H]2CCC[C@H]1C[C@@H](NC(=O)c1cccc3oc(=S)[nH]c13)C2", "note": "[Example 72, Endo N-(9-methyl-9-azabicyclo[3.3.1]nonan-3-yl)-2-thioxo-2,3-dihydrobenzoxazole-4-carboxamide Hydrochloride]", "Ki": 0.0308}
{"compound": "COc1ccccc1Nc1nc2c(C(=O)N[C@H]3C[C@H]4CCC[C@@H](C3)N4C)cccc2o1", "note": "[Example 64, Endo-N-(9-methyl-9-azabicyclo[3.3.1]nonan-3-yl)-2-(2-methoxyphenylamino)benzoxazole-4-carboxamide Hydrochloride]", "Ki": 0.0162}
{"compound": "O=C(NC1CN2CCC1CC2)c1cccc2oc(NCC(F)(F)F)nc12", "note": "(centres unmarked) [Example 109, Hydrochloride]", "Ki": 0.0479}
{"compound": "CN1CCCN(c2nc3c(C(=O)NC4CN5CCC4CC5)cccc3o2)CC1", "note": "[Example 12, (S)—N-(quinuclidine-8-yl)-2-(4-methyl-1,4-diazepam-1-yl)benzoxazole-4-carboxamide Dihydrochloride]", "Ki": 0.317}
{"compound": "CN(C)C(=O)CNc1nc2c(C(=O)N[C@H]3C[C@H]4CCC[C@@H](C3)N4C)cccc2o1", "note": "[Example 47, Endo-N-(9-Methyl-9-azabicyclo[3.3.1]nonan-3-yl)-2-(2-(dimethylamino)-2-oxoethylamino)benzoxazole-4-carboxamide Dihydrochloride]", "Ki": 0.137}
{"compound": "C[C@H]1COC[C@H](C)N1c1nc2c(C(=O)NC3CC4CCC(C3)N4C)cccc2o1", "note": "(stereo partly drawn) [Example 101, N-(8-Methyl-8-azabicyclo[3.2.1]octan-3-yl)-2-(3S,5S)-3,5-dimethylmorpholinobenzoxazole-4-carboxamide Hydrochloride]", "Ki": 0.0026}
{"compound": "CN1[C@@H]2CCC[C@H]1C[C@@H](NC(=O)c1cccc3oc(N)nc13)C2", "note": "[Example 35, Endo-N-(9-Methyl-9-azabicyclo[3.3.1]non-3-yl)-2-aminobenzoxazole-4-carboxamide Hydrochloride]", "Ki": 0.0091}
{"compound": "CN(C)c1nc2c(C(=O)N[C@H]3C[C@H]4CCC[C@@H](C3)N4C)cccc2o1", "note": "[Example 7, Endo-N-(9-Methyl-9-azabicyclo[3.3.1]non-3-yl)-2-(dimethylamino)benzoxazole-4-carboxamide Hydrochloride]", "Ki": 0.0061}
{"compound": "C[C@H]1CNC[C@H](C)N1c1nc2c(C(=O)NC3CN4CCC3CC4)ccc(F)c2o1", "note": "(stereo partly drawn) [Example 118, (S)—N-(Quinulidin-8-yl)-2-((2S,6S)-2,6-dimethylpiperazine-1-yl)-7-fluorobenzoxazole-4-carboxamide hydrochloride]", "Ki": 0.0268}
{"compound": "C[C@H]1CNC[C@H](C)N1c1nc2c(C(=O)NC3CC4CCCC(C3)N4C)cc(Cl)cc2o1", "note": "(stereo partly drawn) [Example 114, Endo-N-(9-methyl-9-azabicyclo[3.3.1]nonan-3-yl)-6-chloro-2-((2S,6S)-2,6-dimethylpiperazin-1-yl)benzoxazole-4-carboxamide Hydrochloride]", "Ki": 0.0066}
{"compound": "C[C@H]1CN(C(=O)C2CCCC2)C[C@H](C)N1c1nc2c(C(=O)NC3CC4CCCC(C3)N4C)cccc2o1", "note": "(stereo partly drawn) [Example 133, Endo-N-(9-methyl-9-azabicyclo[3.3.1]nonan-3-yl)-2-((2S,6S-4-(cyclopentanecarbonyl)-2,6-dimethylpiperazin-1-yl)benzoxazole-4-carboxamide Hydrochloride]", "Ki": 0.0018}
{"compound": "CN1[C@@H]2CCC[C@H]1C[C@@H](NC(=O)c1c(F)ccc3oc(N)nc13)C2", "note": "[Example 128, Endo-N-(9-Methyl-9-azabicyclo[3.3.1]nonan-3-yl)-2-amino-5-fluorobenzoxazole-4-carboxamide Hydrochloride]", "Ki": 0.124}
{"compound": "CC1CNCCN1c1nc2c(C(=O)N[C@H]3C[C@H]4CCC[C@@H](C3)N4C)cccc2o1", "note": "(stereo partly drawn) [Example 25, Endo-N-(9-Methyl-9-azabicyclo[3.3.1]non-3-yl)-2-(2-methylpiperazin-1-yl)benzoxazole-4-carboxamide Dihydrochloride]", "Ki": 0.0275}
{"compound": "CN1C2CCCC1CC(NC(=O)c1cccc3oc(N4CCOC[C@@H]4C(C)(C)C)nc13)C2", "note": "(stereo partly drawn) [Example 68, Endo-N-(9-Methyl-9-azabicyclo[3.3.1]nonan-3-yl)-2-((S)-3-tert-butylmorpholino)benzoxazole-4-carboxamide Hydrochloride]", "Ki": 0.002}
{"compound": "CC(C)[C@H]1COCCN1c1nc2c(C(=O)NC3CC4CCCC(C3)N4C)cccc2o1", "note": "(stereo partly drawn) [Example 48, Endo-N-(9-Methyl-9-azabicyclo[3.3.1]nonan-3-yl)-2-((S)-3-isopropylmorpholino)benzoxazole-4-carboxamide Hydrochloride]", "Ki": 0.006}
{"compound": "C[C@H]1COC[C@H](C)N1c1nc2c(C(=O)NC3CC4COCC(C3)N4C)cccc2o1", "note": "(stereo partly drawn) [Example 88, Endo-N-(9-Methyl-3-oxa-9-azabicyclo[3.3.1]nonan-7-yl) 2-((3 S,5S)-3,5-dimethylmorpholino)benzoxazole-4-carboxamide Hydrochloride]", "Ki": 0.0199}
{"compound": "CN1C[C@H]2C[C@@H](NC(=O)c3cccc4oc(Nc5ccccc5)nc34)C[C@@H](C1)N2C", "note": "[Example 51, Endo-N-(3,9-Dimethyl-3,9-diazabicyclo[3.3.1]nonan-7-yl)-2-(phenylamino)benzoxazole-4-carboxamide Hydrochloride]", "Ki": 0.212}
{"compound": "Cc1cc(C(=O)N[C@H]2C[C@H]3CCC[C@@H](C2)N3C)c2nc(N)oc2c1", "note": "[Example 129, Endo-2-amino-6-methyl-N-(9-Methyl-9-azabicyclo[3.3.1]nonan-3-yl)benzoxazole-4-carboxamide Hydrochloride]", "Ki": 0.0107}
{"compound": "CN1C2CCCC1CC(NC(=O)c1cccc3oc(N4CCNC[C@@H]4C(C)(C)C)nc13)C2", "note": "(stereo partly drawn) [Example 96, Endo-N-(9-Methyl-9-azabicyclo[3.3.1]nonan-3-yl)-2-((S)-2-tert-butylpiperazin-1-yl)benzoxazole-4-carboxamide Hydrochloride]", "Ki": 0.0075}
{"compound": "CN1[C@@H]2CCC[C@H]1C[C@@H](NC(=O)c1cc(Cl)cc3oc(N)nc13)C2", "note": "[Example 111, Endo-2-amino-6-chloro-N-(9-Methyl-9-azabicyclo[3.3.1]nonan-3-yl)benzoxazole-4-carboxamide Hydrochloride]", "Ki": 0.002}
{"compound": "CN(C)CCNc1nc2c(C(=O)N[C@H]3C[C@H]4CCC[C@@H](C3)N4C)cccc2o1", "note": "[Example 32, Endo-N-(9-Methyl-9-azabicyclo[3.3.1]nonan-3-yl)-2-(2-(dimethylamino)ethylamino)benzoxazole-4-carboxamide Trihydrochloride]", "Ki": 0.234}
{"compound": "CN1C2CCCC1CC(NC(=O)c1cccc3oc(N4CCN[C@H]5CCCC[C@@H]54)nc13)C2", "note": "(stereo partly drawn) [Example 126, Endo-N-(9-Methyl-9-azabicyclo[3.3.1]nonan-3-yl)-2-((4aS,8aS)-octahydroquinoxalin-1(2H)-yl)benzoxazole-4-carboxamide Dihydrochloride]", "Ki": 0.0165}
{"compound": "CN1[C@@H]2CCC[C@H]1C[C@@H](NC(=O)c1cccc3oc(N4CCNC(=O)C4)nc13)C2", "note": "[Example 86, Endo-N-(9-Methyl-9-azabicyclo[3.3.1]nonan-3-yl)-2-(3-oxopiperazine-1-yl)benzoxazole-4-carboxamide Hydrochloride]", "Ki": 0.0662}
{"compound": "C[C@H]1CN(C)C[C@H](C)N1c1nc2c(C(=O)NC3CC4CCCC(C3)N4C)cccc2o1", "note": "(stereo partly drawn) [Example 122, Endo-N-(9-methyl-9-azabicyclo[3.3.1]nonan-3-yl)-2-((2S,6S-2,4,6-trimethylpiperazin-1-yl)benzoxazole-4-carboxamide Hydrochloride]", "Ki": 0.0023}
{"compound": "CN1CC2CC(NC(=O)c3cccc4oc(N5CCOCC5)nc34)CC(C1)N2C", "note": "(stereo not drawn) [Example 43, Exo-N-(3,9-Dimethyl-3,9-diazabicyclo[3.3.1]nonan-7-yl)-2-morpholinobenzoxazole-4-carboxamide Hydrochloride]", "Ki": 0.48}
{"compound": "CN(C)c1nc2c(C(=O)N[C@@H]3CN4CCC3CC4)cc(Cl)cc2o1", "note": "[Example 108, (S)—N-(quinuclidine-8-yl)-6-chloro-2-(dimethylamino)benzoxazole-4-carboxamide Hydrochloride]", "Ki": 0.0144}
{"compound": "C[C@H]1CNCCN1c1nc2c(C(=O)NC3CC4CCCC(C3)N4C)cc(Cl)cc2o1", "note": "(stereo partly drawn) [Example 57, Endo-N-(9-methyl-9-azabicyclo[3.3.1]nonan-3-yl)-6-chloro-2-((S)-2-methylpiperazin-1-yl)benzoxazole-4-carboxamide Hydrochloride]", "Ki": 0.0114}
{"compound": "CN1CCN(c2nc3c(C(=O)N[C@@H]4CN5CCC4CC5)cccc3o2)CC1", "note": "[Example 2, (S)—N-(quinuclidine-8-yl)-2-(4-methylpiperazin-1-yl)benzoxazole-4-carboxamide Dihydrochloride]", "Ki": 0.382}
{"compound": "C[C@H]1CN(C)C(=O)[C@H](C)N1c1nc2c(C(=O)NC3CN4CCC3CC4)cccc2o1", "note": "(stereo partly drawn) [Example 124, N-(Quinuclidine-8-yl)-2-((2S,6S)-2,4,6-trimethyl-3-oxopiperazine-1-yl)benzoxazole-4-carboxamide Hydrochloride]", "Ki": 0.0177}
